Bridge positions count the residues as written; N and C are the ends. Square brackets hold non-standard residues; d marks the D form. Ends that are not written are not given here. * marks the point of attachment. Biotin = O=C1N[C@H]2[C@H](CS[C@H]2CCCCC(=O)*)N1
Columns and labels:
[1] = system: HEK293 cells ectopically expressing FBLN4; assay: Fluorescent peptide binding to HEK293 cells; assay type: cell-based; details: Figure S2A
[2] = system: invasive and metastatic cancer cells in tissue sections; assay: Overlay assay on paraffin tissue sections
Description: Octet binding assays were performed with an Octet RED96 system (ForteBio) as described ([13]). Briefly, the peptides were loaded onto streptavidin resin-coated biosensors (Sartorius Lab, 18–5019) at a concentration of 20 ug/ml in 1x kinetic buffer for 5 min. […] For all experiments, Ka (1/Ms) and Kd (1/s) were measured. FortéBio’s data analysis software was employed to fit the binding curve to a 1:1 binding model in order to extract association and dissociation rates. Overlay assay on tissues was performed by incubating AZDye555-BLMP6 (12.5 ug/ml) for 2 hr and washing with PBS before fixation with 4% paraformaldehyde.

Stability in mouse serum = assay type: in vitro ADME; details: Figure S4B-C
Excerpt: To test MMAE-BLMP6 efficacy in vivo, we first analyzed its stability in mouse serum. […] We then used the experimental lung metastasis model of B16F10 cells injected intravenously to produce lung metastases.

[3] = system: MDA-MB-231-luc-GFP lung metastases; assay: MDA-MB-231 experimental lung metastasis model, treatment; assay type: in vivo, mouse
Excerpt: (§1) Animal studies were approved by the IACUC of UTHealth. Spontaneous cancer progression to metastases was modeled by injecting 2×10^4 4T1 cells into the mammary fat pad of 10-week-old female Balb/c mice (Jackson Laboratory) with a 31-gauge needle. Metastatic progression was monitored with bioluminescence imaging. For lung metastasis modeling, Balb/c mice were tail vein-injected with 2.5×10^5 4T1-luc WT or FBLN4-KO cells, C57BL/6 mice (Jackson) were tail vein-injected with 1×10^5 B16F10 cells, and athymic Nude-Foxn1nu (Envigo) mice were tail vein-injected with 1×10^5 MDA-MB-231-luc-GFP cells. For phage-peptide homing analysis, mice were injected into the tail vein with 5×10^10 transducing units (TU) of phage-BLMP6 ([6]). After 30 min of circulation, heart perfusion with 10 ml of PBS was performed and lung sections were processed. For PET imaging studies, mice were intravenously injected with 7.4 MBq (200 μCi, 5 nmol) of ^68Ga-labeled DOTA-BLMP6 and imaged 45–60 min later using Albira small-animal PET/CT scanner (Bruker After imaging, the mice were euthanized, the tissues of interest were harvested and probe homing was analyzed using a Cobra II automated gamma counter (Packard) and expressed as percentage of the injected dose per gram tissue (%ID/g tissue).
To test MMAE-BLMP6 efficacy for cancer suppression, we first used the B16F10 experimental lung metastasis model. Three MMAE-BLMP6 (50 ug) or PBS subcutaneous injections were done over days 1–6 and four additional MMAE-BLMP6 (100 ug) or PBS subcutaneous injections on days 8–18 after iv injection of B16F10-luc cells (Figure 5A). […] While vehicle-treated mice began dying on day 15, with most animals perishing by day 21, MMAE-BLMP6-treated mice only started showing metastases on day 15 by IVIS and survived 2 to 3 days longer (Figure 5A). In the MDA-MB-231-luc-GFP experimental lung metastasis model, a similar trend was observed (Figure 5C).

B16F10 lung metastases = assay: B16F10 experimental lung metastasis model, treatment; assay type: in vivo, mouse; details: B16F10-luc iv
Excerpt: as §1
To test MMAE-BLMP6 efficacy for cancer suppression, we first used the B16F10 experimental lung metastasis model. […]

FBLN4 = biological target: T1, FBLN4 (Mus musculus, UniProt Q9WVJ9); assay: Affinity purification of FBLN4 from 4T1 cell extract on BLMP6-loaded beads; assay type: binding; details: biotinylated BLMP6 immobilized on streptavidin-coated beads; not isolated on control beads
T1 construct: proteins extracted from 4T1 cells were incubated with beads pre-loaded with BLMP6; endogenous in cells; host or cells: 4T1 mouse breast cancer cells
T1 sequence (Q9WVJ9 28-443): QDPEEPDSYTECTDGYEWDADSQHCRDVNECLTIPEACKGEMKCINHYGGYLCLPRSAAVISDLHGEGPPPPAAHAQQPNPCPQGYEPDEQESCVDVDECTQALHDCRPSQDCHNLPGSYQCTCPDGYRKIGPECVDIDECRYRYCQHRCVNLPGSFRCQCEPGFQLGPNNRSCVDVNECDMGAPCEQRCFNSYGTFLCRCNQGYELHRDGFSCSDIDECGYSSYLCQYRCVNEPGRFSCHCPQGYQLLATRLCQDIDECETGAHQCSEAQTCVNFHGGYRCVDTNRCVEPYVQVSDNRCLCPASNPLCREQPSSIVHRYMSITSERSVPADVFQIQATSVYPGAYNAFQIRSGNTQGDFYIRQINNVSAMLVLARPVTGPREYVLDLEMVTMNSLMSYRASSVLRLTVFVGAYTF
Description: To test if BLMP6 binds to FBLN4 in vitro, we used Octet to perform the biolayer interferometry assay. […] To confirm BLMP6 binding to FBLN4 expressed by cancer cells, proteins extracted from 4T1 cells were incubated with beads pre-loaded with BLMP6. […] To confirm BLMP6 binding to FBLN4 in a genetic model, we used CRISPR/Cas9 to make 4T1 FBLN4 knockout (KO) cells confirmed by RT-PCR (Figure 1E). FBLN4-KO and control 4T1-luc cells were grafted into mice, and once metastases were detected by bioluminescence, phage displaying BLMP6 ([6]) was injected. After 30 min of circulation, heart perfusion was performed, and lungs were recovered. Section histopathology confirmed metastasis formation in all lungs, indicating FBLN4 expression is not required for cancer cell colonization and growth at the secondary site.

[4] = biological target: FBLN4 of mouse 4T1 cancer cells (mouse (endogenous in 4T1)) (UniProt Q9WVJ9)
[5] = biological target: T2, Fibulin-4 protein (Abcam, 182808) (UniProt O95967 24-443); assay: BLI
T2 chain: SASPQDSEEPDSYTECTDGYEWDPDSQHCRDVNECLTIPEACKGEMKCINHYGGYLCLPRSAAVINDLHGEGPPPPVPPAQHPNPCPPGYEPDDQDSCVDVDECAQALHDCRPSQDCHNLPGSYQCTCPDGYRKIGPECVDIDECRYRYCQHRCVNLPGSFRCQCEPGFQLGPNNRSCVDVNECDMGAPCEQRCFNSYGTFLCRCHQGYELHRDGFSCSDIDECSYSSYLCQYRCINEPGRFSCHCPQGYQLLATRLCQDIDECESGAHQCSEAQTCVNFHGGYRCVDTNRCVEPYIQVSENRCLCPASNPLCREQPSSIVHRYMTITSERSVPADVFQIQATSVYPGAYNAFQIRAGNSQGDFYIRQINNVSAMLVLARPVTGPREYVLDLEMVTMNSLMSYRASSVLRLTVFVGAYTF

**Q.** For “AZDye555-BLMP6 (AZDye555-CRAGVGRGC; bridge 1-9 (inferred))”, which “binding to HEK293 cells ectopically expressing FBLN4” value [1] is on record?
**A.** The value was “confirmed to bind”.

**Q.** What about the “binding to non-transfected control HEK293 cells” value [1] of the same molecule?
**A.** Its value is “not to non-transfected control cells”.

**Q.** And the “binding to lung sections from mice grafted with 4T1 cells” value ([2]; 12.5 ug/ml overlay, 2 hr, paraffin sections)?
**A.** The value was “selectively bound to metastatic lesions but not to normal lung”.

**Q.** And the “binding to lung sections from mice with MDA-MB-231 experimental lung metastases” value ([2]; 12.5 ug/ml overlay, paraffin sections, N-cadherin IF)?
**A.** The value was “binds to a subpopulation of tumor cells expressing N-cadherin”.

**Q.** And the “binding across human breast cancer tissue array cores” value ([2]; human FFPE tissue arrays: 50 primary, 40 metastatic, 10 adjacent control biopsies)?
**A.** The value was “largely concordant with N-cadherin expression”.

**Q.** For “MMAE-BLMP6: monomethyl auristatin E coupled to all-D BLMP6 via PEG4, valine-citrulline and PAB linker ([dC][dR][dA]G[dV]G[dR]G[dC]; disulfide 1-9 (inferred); also: MMAE coupled via PAB-Cit-Val-PEG4 linker, site not given here)”, which “time after which a secondary degradation peak appeared in mouse serum” value (Stability in mouse serum) is on record?
**A.** Its value is 6 h.

**Q.** What about the “stability in mouse serum, peaks observed” value (Stability in mouse serum; after 1 hr) of the same molecule?
**A.** The value was “single MMAE-BLMP6 peak was observed”.

**Q.** What about the “survival beyond controls, one treated mouse” value ([3]; MDA-MB-231-luc-GFP iv, one of the treated mice) of the same molecule?
**A.** The value was 9 days.

**Q.** And the “metastasis growth, bioluminescence imaging” value ([3]; MDA-MB-231-luc-GFP iv, sc treatment versus PBS, days 12 and 21)?
**A.** The value was “suppressed metastasis growth”.

**Q.** And the “tolerability, clinical observation” value ([3]; athymic mice, 50 to 100 μg sc, at day 15, treatment interrupted 6 days, re-initiated at 15 μg daily)?
**A.** The value was “signs of sickness”.

**Q.** What about the “metastasis burden, bioluminescence analysis by IVIS” value (B16F10 lung metastases; sc 50 ug x3 over days 1-6 and 100 ug x4 on days 8-18, versus PBS, at day 5) of the same molecule?
**A.** Its value is “metastasis suppression”.

**Q.** What about the “survival longer than vehicle-treated mice” value (B16F10 lung metastases; sc 50 ug x3 then 100 ug x4, vehicle mice began dying on day 15, most by day 21) of the same molecule?
**A.** Its value is 2 to 3 days.

**Q.** With “CRAGVGRGC (disulfide 1-9 (inferred)) [BLMP6, cyclic peptide … that homes to disseminating tumor cells]” as the molecule, how does the “FBLN4 isolated from 4T1 cell proteins on peptide-loaded beads, immunoblotting with anti-FBLN4 antibodies” value (FBLN4) read?
**A.** Its value is “the predicted 49 kDa band was observed”.

B1: MMAE-BLMP6 (peptide)
peptide: [dC][dR][dA]G[dV]G[dR]G[dC]
modifications: disulfide 1-9 (inferred); also: MMAE coupled via PAB-Cit-Val-PEG4 linker, site not given here
**Q.** Which IC50 of cell viability (CellTiter-Blue), 4T1 cells, 24 h after adding MMAE-BLMP6 [4] does the source give for B1 here?
**A.** Its IC50 of cell viability (CellTiter-Blue), 4T1 cells, 24 h after adding MMAE-BLMP6 is 500 nM.

B2: biotinylated BLMP6, cyclic peptide CRAGVGRGC (peptide)
peptide: Biotin-CRAGVGRGC
modifications: disulfide 1-9 (inferred)
**Q.** For B2, which koff [5] is on record?
**A.** The koff was 3.18e-07 s⁻¹.

Reference: doi:10.1101/2025.06.18.657655, “Fibulin-4 is highly expressed in metastatic breast cancer and can serve as a target of peptide-based imaging probes and experimental therapeutics” (bioRxiv, 2025)
